{"source": "patent US20100298141A1", "about": "“SUBSTITUTED PYRIDINE N-OXIDE HERBICIDES” (E. I. DU PONT DE NEMOURS AND COMPANY, priority 2007, published 2010)", "key": {"windgrass": {"system": "windgrass", "experiment": "Test C pre-/postemergence test", "assay_type": "in vivo, Apera spica-venti", "conditions": "Postemergence; for Plant response rating, Windgrass: scale 0 to 100, 0 no effect, 100 complete control", "description": "Seeds of plant species selected from blackgrass (Alopecurus myosuroides), downy brome (Bromus tectorum), green foxtail (Setaria viridis), Italian ryegrass (Lolium multiflorum), wheat (Triticum aestivum), wild oat (Avena fatua), catchweed bedstraw (Galium aparine), Russian thistle (Salsola kali), […] (Cynodon dactylon), Surinam grass (Brachiaria decumbens), cocklebur (Xanthium strumarium), corn (Zea mays), crabgrass (Digitaria sanguinalis), woolly cupgrass (Eriochloa villosa), giant foxtail (Setaria faberii), Goosegrass (Eleusin indica), johnsongrass (Sorghum halepense), kochia (Kochia scoparia), lambsquarters (Chenopodium album), morningglory (Ipomoea coccinea), eastern black nightshade (Solanum ptycanthum), yellow nutsedge (Cyperus esculentus), pigweed (Amaranthus retroflexus), common ragweed (Ambrosia elation), soybean (Glycine max), common (oilseed) sunflower (Helianthus annuus), and velvetleaf (Abutilon theophrasti) were planted and treated preemergence with test chemicals formulated in a non-phytotoxic solvent mixture which included a surfactant. At the same time, plants selected from these crop and weed species and also winter barley (Hordeum vulgare), canarygrass (Phalaris minor), and chickweed (Stellaria media) were treated with postemergence applications of some of the test chemicals formulated in the same manner. Plants ranged in height from 2 to 18 cm (1- to 4-leaf stage) for postemergence treatments. […] At time of treatment, test pots were flooded to 3 cm above the soil surface, treated by application of test compounds directly to the paddy water, and then maintained at that water depth for the duration of the test. […] A dash (-) response means no test result."}, "winter barley": {"system": "winter barley", "experiment": "Test C postemergence test", "assay_type": "in vivo, Hordeum vulgare", "conditions": "for Plant response rating, Barley: scale 0 to 100, 0 no effect, 100 complete control", "procedure": "(§1) At the same time, plants selected from these crop and weed species and also winter barley (Hordeum vulgare), canarygrass (Phalaris minor), and chickweed (Stellaria media) were treated with postemergence applications of some of the test chemicals formulated in the same manner. Plants ranged in height from 2 to 18 cm (1- to 4-leaf stage) for postemergence treatments. […] At time of treatment, test pots were flooded to 3 cm above the soil surface, treated by application of test compounds directly to the paddy water, and then maintained at that water depth for the duration of the test. Treated plants and controls were maintained in a greenhouse for 13 to 15 days, after which time all species were compared to controls and visually evaluated. […] A dash (-) response means no test result."}, "canarygrass": {"system": "canarygrass", "experiment": "Test C postemergence test", "assay_type": "in vivo, Phalaris minor", "conditions": "for Plant response rating, Canarygrass: scale 0 to 100, 0 no effect, 100 complete control", "procedure": "as §1"}, "chickweed": {"system": "chickweed", "experiment": "Test C postemergence test", "assay_type": "in vivo, Stellaria media", "conditions": "for Plant response rating, Chickweed: scale 0 to 100, 0 no effect, 100 complete control", "procedure": "as §1"}, "large crabgrass": {"system": "large crabgrass", "experiment": "Test F preemergence test", "assay_type": "in vivo, Digitaria sanguinalis", "conditions": "scale 0 to 100", "in_short": "(§2)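 Visual ratings relative to controls, taken after 14 to 21 days in a greenhouse. Test chemicals, formulated in a surfactant-containing non-phytotoxic solvent mixture, were applied preemergence to sown seeds or postemergence to sugarcane plants.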"}, "barnyardgrass": {"system": "barnyardgrass", "experiment": "Test F preemergence test", "assay_type": "in vivo, Echinochloa crus-galli", "conditions": "scale 0 to 100", "in_short": "as §2"}, "common sowthistle": {"system": "common sowthistle", "experiment": "Test F preemergence test", "assay_type": "in vivo, Sonchus oleraceous", "conditions": "scale 0 to 100; for Sowthistle plant response rating: preemergence; for Plant response rating, Sowthistle: Preemergence", "description": "(§3) Seeds of plant species selected from bermudagrass (Cynodon dactylon), Surinam grass (Brachiaria decumbens), large crabgrass (Digitaria sanguinalis), green foxtail (Setaria viridis), goosegrass (Eleusine indica), johnsongrass (Sorghum halepense), kochia (Kochia scoparia), pitted morningglory (Ipomoea lacunosa), purple nutsedge (Cyperus rotundus), common ragweed (Ambrosia elation), mustard (Brassica nigra), guineagrass (Panicum maximum), […] (Paspalum dilatatum), barnyardgrass (Echinochloa crus-galli), southern sandbur (Cenchrus echinatus), common sowthistle (Sonchus oleraceous), prickly […] spinosa), Italian ryegrass (Lolium multiflorum), common purslane (Portulaca oleracea), broadleaf signalgrass (Brachiaria platyphylla), common groundsel (Senecio vulgaris), common chickweed (Stellaria media), Virginia dayflower (Commelina virginica), annual bluegrass (Poa annua), naked crabgrass (Digitaria nuda), […] cochinchinensis), quackgrass (Elytrigia repens), Canada horseweed (Conyza canadensis), field bindweed (Convolvulus arvensis), […] (Bidens bipinnata), common mallow (Malva sylvestris), Russian thistle (Salsola kali), and sugarcane (Saccharum officinarum) were planted and treated preemergence with test chemicals formulated in a non-phytotoxic solvent mixture which included a surfactant. At a different time, sugarcane was treated with postemergence applications of some of the test chemicals formulated in the same manner. Plants were approximately 3- to 4-leaf stage for the postemergence treatments. Treated plants and controls were maintained in a greenhouse for 14 to 21 days, after which time all species were compared to controls and visually evaluated. […] A dash (-) response means no test result."}, "common chickweed": {"system": "common chickweed", "experiment": "Test F preemergence test", "assay_type": "in vivo, Stellaria media", "conditions": "scale 0 to 100", "description": "as §3"}, "Canada horseweed": {"system": "Canada horseweed", "experiment": "Test F preemergence test", "assay_type": "in vivo, Conyza canadensis", "conditions": "scale 0 to 100", "description": "as §3"}, "spanishneedles": {"system": "spanishneedles", "experiment": "Test F preemergence test", "assay_type": "in vivo, Bidens bipinnata", "conditions": "scale 0 to 100; for Spanishneedles plant response rating: preemergence; for Plant response rating, Spanishneedles: Preemergence", "description": "as §3"}}}
{"smiles": "Cn1nc(C(F)(F)F)c(C[S+]([O-])c2ccc(F)c[n+]2[O-])c1OC(F)F", "note": "(centres unmarked) [Compound 58]", "values": [{"measurement": "Plant response rating (0 to 100), Windgrass", "setting": "windgrass; 31 g ai/ha", "result": 20}, {"measurement": "Plant response rating (0 to 100), Windgrass", "setting": "windgrass; 62 g ai/ha", "result": 40}, {"measurement": "Plant response rating, Windgrass", "setting": "windgrass; 125 g ai/ha", "result": 70}, {"measurement": "Plant response rating, Windgrass", "setting": "windgrass; 250 g ai/ha", "result": 95}, {"measurement": "Plant response rating (0 to 100), Barley", "setting": "winter barley; 31 g ai/ha", "result": 0}, {"measurement": "Plant response rating, Barley", "setting": "winter barley; 62 g ai/ha", "result": 0}, {"measurement": "Plant response rating, Barley", "setting": "winter barley; 125 g ai/ha", "result": 20}, {"measurement": "Plant response rating, Barley", "setting": "winter barley; 250 g ai/ha", "result": 30}, {"measurement": "Plant response rating (0 to 100), Canarygrass", "setting": "canarygrass; 31 g ai/ha", "result": 0}, {"measurement": "Plant response rating, Canarygrass", "setting": "canarygrass; 62 g ai/ha", "result": 0}, {"measurement": "Plant response rating, Canarygrass", "setting": "canarygrass; 125 g ai/ha", "result": 0}, {"measurement": "Plant response rating, Canarygrass", "setting": "canarygrass; 250 g ai/ha", "result": 0}, {"measurement": "Plant response rating (0 to 100), Chickweed", "setting": "chickweed; 31 g ai/ha", "result": 30}, {"measurement": "Plant response rating, Chickweed", "setting": "chickweed; 62 g ai/ha", "result": 60}, {"measurement": "Plant response rating, Chickweed", "setting": "chickweed; 125 g ai/ha", "result": 60}, {"measurement": "Crabgrass, Large plant response rating", "setting": "large crabgrass; 62 g ai/ha, Preemergence", "result": 98}, {"measurement": "Crabgrass, Large plant response rating", "setting": "large crabgrass; 125 g ai/ha, preemergence", "result": 100}, {"measurement": "Crabgrass, Large plant response rating", "setting": "large crabgrass; 250 g ai/ha, preemergence", "result": 100}, {"measurement": "Plant response rating, Crabgrass, Large", "setting": "large crabgrass; Preemergence, 31 g ai/ha", "result": 75}, {"measurement": "Barnyardgrass plant response rating", "setting": "barnyardgrass; 62 g ai/ha, Preemergence", "result": 100}, {"measurement": "Barnyardgrass plant response rating", "setting": "barnyardgrass; 125 g ai/ha, preemergence", "result": 100}, {"measurement": "Barnyardgrass plant response rating", "setting": "barnyardgrass; 250 g ai/ha, preemergence", "result": 100}, {"measurement": "Plant response rating, Barnyardgrass", "setting": "barnyardgrass; Preemergence, 31 g ai/ha", "result": 90}, {"measurement": "Sowthistle plant response rating", "setting": "common sowthistle; 125 g ai/ha", "result": 100}, {"measurement": "Sowthistle plant response rating", "setting": "common sowthistle; 250 g ai/ha", "result": 100}, {"measurement": "Plant response rating, Sowthistle", "setting": "common sowthistle; 62 g ai/ha", "result": 100}, {"measurement": "Plant response rating, Sowthistle", "setting": "common sowthistle; 31 g ai/ha", "result": 0}, {"measurement": "Chickweed plant response rating", "setting": "common chickweed; 62 g ai/ha, Preemergence", "result": 95}, {"measurement": "Chickweed plant response rating", "setting": "common chickweed; 125 g ai/ha, preemergence", "result": 100}, {"measurement": "Chickweed plant response rating", "setting": "common chickweed; 250 g ai/ha, preemergence", "result": 100}, {"measurement": "Horseweed plant response rating", "setting": "Canada horseweed; 62 g ai/ha, Preemergence", "result": 98}, {"measurement": "Horseweed plant response rating", "setting": "Canada horseweed; 125 g ai/ha, preemergence", "result": 98}, {"measurement": "Horseweed plant response rating", "setting": "Canada horseweed; 250 g ai/ha, preemergence", "result": 100}, {"measurement": "Plant response rating, Horseweed", "setting": "Canada horseweed; Preemergence, 31 g ai/ha", "result": 98}, {"measurement": "Spanishneedles plant response rating", "setting": "spanishneedles; 125 g ai/ha", "result": 65}, {"measurement": "Spanishneedles plant response rating", "setting": "spanishneedles; 250 g ai/ha", "result": 100}, {"measurement": "Plant response rating, Spanishneedles", "setting": "spanishneedles; 62 g ai/ha", "result": 50}, {"measurement": "Plant response rating, Spanishneedles", "setting": "spanishneedles; 31 g ai/ha", "result": 50}]}
